Consider two molecules from patent US9023789B2, “Amylin analogs and pharmaceutical compositions thereof” (Novo Nordisk A/S, priority 2012, dated 2015).

Data set [1] is described as follows: ASSAY (IV) determination of solubility. It counts as physicochemical. In outline:
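Dissolve polypeptide in water ([…] stock); combine 1:1 with each 100 mM buffer (glycylglycine pH 3.0/4.0/5.0; bistrispropane pH 6.0/6.5/7.0/7.5/8.0); hold 18 hours at room temperature; centrifuge; quantify polypeptide by UPLC.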

For data set [2], the target named is T1, rat amylin receptor (rat calcitonin receptor + rat RAMP 3) (Rattus norvegicus, UniProt P32214+Q9JJ73).
T1 construct: expressed in transfected cells; host or cells: BHK tk'ts 13 (transient, FuGENE 6), membranes
T1 sequence (P32214 25-479 isoform P32214-2 limits assumed): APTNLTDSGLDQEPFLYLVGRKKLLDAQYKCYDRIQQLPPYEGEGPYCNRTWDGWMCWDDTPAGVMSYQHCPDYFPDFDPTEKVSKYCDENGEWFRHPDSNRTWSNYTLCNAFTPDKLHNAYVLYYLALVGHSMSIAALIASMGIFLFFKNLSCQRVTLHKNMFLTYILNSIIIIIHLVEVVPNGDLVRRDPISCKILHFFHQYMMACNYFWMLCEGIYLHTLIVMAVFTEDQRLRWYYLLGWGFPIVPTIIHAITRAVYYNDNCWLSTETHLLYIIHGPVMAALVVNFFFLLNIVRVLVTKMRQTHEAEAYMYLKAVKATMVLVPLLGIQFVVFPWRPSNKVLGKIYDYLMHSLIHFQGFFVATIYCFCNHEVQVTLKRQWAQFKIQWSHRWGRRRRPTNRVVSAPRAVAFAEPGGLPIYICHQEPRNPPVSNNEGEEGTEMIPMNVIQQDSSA
T1 sequence (Q9JJ73 23-147 partner): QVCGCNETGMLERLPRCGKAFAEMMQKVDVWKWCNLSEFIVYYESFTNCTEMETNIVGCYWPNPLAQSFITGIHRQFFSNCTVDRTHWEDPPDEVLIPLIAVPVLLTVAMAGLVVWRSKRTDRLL
Description: ASSAY (VI) binding to the rat amylin receptor. Particulars: for pIC50: binding to rat amylin receptor, read-out: rAmylin-R bind IC50. In outline:
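Binding to the rat amylin receptor was determined with membrane preparations. The receptor was expressed by transiently transfecting BHK tk′ts 13 cells with rat calcitonin receptor, using FuGENE® 6 (Roche) according to the manufacturer's recommendations. Roughly 48 hours later the cells were harvested and their membranes isolated.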

Data set [3] addresses T2, rat calcitonin receptor (Rattus norvegicus, UniProt P32214).
T2 construct: expressed in transfected cells; host or cells: BHK tk'ts 13 (transient, FuGENE 6), membranes
T2 sequence (P32214 25-479 isoform P32214-2 limits assumed): T1 sequence (P32214 25-479 isoform P32214-2 limits assumed)
In words: ASSAY (VIII) binding to the rat calcitonin receptor. As to conditions: Table 7, read-out: rCTR bind IC50. In outline:
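Rat calcitonin receptor is expressed transiently in BHK tk′ts 13 cells cultured in DMEM with 10% FBS. Roughly two days (approximately 48 hours) post-transfection, cells are harvested for membrane preparation.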

Where [4] appears, read: bistrispropane buffer, pH 6.5, read-out: Solubility pH 6.5 Concentration.
The mark [5] stands for this setting: bistrispropane buffer, pH 7.5, read-out: Solubility pH 7.5 Concentration.
The mark [6] stands for this setting: bistrispropane buffer, pH 6.0, read-out: Solubility pH 6.0 Concentration.
[7] abbreviates: bistrispropane buffer, pH 7.0, read-out: Solubility pH 7.0 Concentration.
The mark [8] stands for this setting: bistrispropane buffer, pH 8.0, read-out: Solubility pH 8.0 Concentration.
Setting [9] is: glycylglycine buffer, pH 3.0, read-out: Solubility pH 3.0 Concentration.
Setting [10] is: glycylglycine buffer, pH 4.0, read-out: Solubility pH 4.0 Concentration.
The mark [11] stands for this setting: glycylglycine buffer, pH 5.0, read-out: Solubility pH 5.0 Concentration.
[12] abbreviates: Table 7, rat binding selectivity, rCTR IC50 / rAmylin-R IC50.
Where [13] appears, read: Table 7a (preferred compounds), rat binding selectivity, rCTR IC50 / rAmylin-R IC50.
Where [14] appears, read: ratio of rCTR bind IC50 to rAmylin-R bind IC50.

pIC50: −log10 of the molar value. Read-outs that look alike come from different tables or passages of the source.

`CC[C@H](C)[C@H](NC(=O)[C@H](C)NC(=O)CNC(=O)[C@H](Cc1ccccc1)NC(=O)[C@H](CC(N)=O)NC(=O)[C@@H]1CCCN1C(=O)[C@H](CO)NC(=O)[C@H](CO)NC(=O)[C@H](Cc1c[nH]cn1)NC(=O)[C@H](CCCNC(=N)N)NC(=O)[C@H](CC(C)C)NC(=O)[C@H](Cc1ccccc1)NC(=O)[C@H](CC(N)=O)NC(=O)[C@H](C)NC(=O)[C@H](CC(C)C)NC(=O)[C@H](CCCNC(=N)N)NC(=O)[C@H](CCC(N)=O)NC(=O)[C@@H](NC(=O)[C@H](C)NC(=O)[C@@H]1CSSC[C@H](NC(=O)[C@@H](N)CCCCNC(=O)COCCOCCNC(=O)CCCCCCCCCCCCCCCCCCC(=O)O)C(=O)N[C@@H](CC(N)=O)C(=O)N[C@@H]([C@@H](C)O)C(=O)N[C@@H](C)C(=O)N[C@@H]([C@@H](C)O)C(=O)N1)[C@@H](C)O)C(=O)N1CCC[C@H]1C(=O)N[C@@H](CO)C(=O)N[C@@H](CO)C(=O)N[C@H](C(=O)N[C@@H](CC(N)=O)C(=O)N[C@H](C(=O)NCC(=O)N[C@@H](Cc1c[nH]cn1)C(=O)N[C@@H](CC(N)=O)C(=O)N[C@H](C(=O)N[C@@H](Cc1ccc(O)cc1)C(N)=O)[C@@H](C)O)C(C)C)[C@@H](C)O` [Example 91]: the solubility at 18 h in data set [1] (setting [4]), in data set [1] (setting [5]), in data set [1] (setting [6]), in data set [1] (setting [7]), in data set [1] (setting [8]) and in data set [1] (setting [9]) was not below 200 µM throughout. Further, the solubility at 18 h in data set [1] (setting [10]) and in data set [1] (setting [11]) was not below 200 µM each time. Moreover, the negative-log IC50 (pIC50) in data set [2] (Table 7) is 9.41; in data set [3], 7.53. The “Ratio rCT/rAmylin binding” value in data set [2] (setting [12]), in data set [2] (setting [13]) and in data set [2] (setting [14]) was 76.3 throughout.

As for `CC[C@H](C)[C@H](NC(=O)[C@H](C)NC(=O)CNC(=O)[C@H](Cc1ccccc1)NC(=O)[C@H](CC(N)=O)NC(=O)[C@@H]1CCCN1C(=O)[C@H](CO)NC(=O)[C@H](CO)NC(=O)[C@H](Cc1c[nH]cn1)NC(=O)[C@H](CCCNC(=N)N)NC(=O)[C@H](CC(C)C)NC(=O)[C@H](Cc1ccccc1)NC(=O)[C@H](Cc1c[nH]cn1)NC(=O)[C@H](C)NC(=O)[C@H](CC(C)C)NC(=O)[C@H](CCCNC(=N)N)NC(=O)[C@H](CCC(N)=O)NC(=O)[C@@H](NC(=O)[C@H](C)NC(=O)[C@@H]1CSSC[C@H](NC(=O)[C@@H](N)CCCCNC(=O)CC[C@H](NC(=O)CC[C@H](NC(=O)CCCCCCCCCCCCCCCCCCC(=O)O)C(=O)O)C(=O)O)C(=O)N[C@@H](CC(N)=O)C(=O)N[C@@H]([C@@H](C)O)C(=O)N[C@@H](C)C(=O)N[C@@H]([C@@H](C)O)C(=O)N1)[C@@H](C)O)C(=O)N1CCC[C@H]1C(=O)N[C@@H](CO)C(=O)N[C@@H](CO)C(=O)N[C@H](C(=O)N[C@@H](CC(N)=O)C(=O)N[C@H](C(=O)NCC(=O)N[C@@H](CO)C(=O)N[C@@H](CC(N)=O)C(=O)N[C@H](C(=O)N[C@@H](Cc1ccc(O)cc1)C(N)=O)[C@@H](C)O)C(C)C)[C@@H](C)O` [Example 92], the solubility at 18 h in data set [1] (setting [4]), in data set [1] (setting [5]), in data set [1] (setting [6]), in data set [1] (setting [7]), in data set [1] (setting [8]) and in data set [1] (setting [9]) was not below 200 µM throughout. Moreover, the solubility at 18 h in data set [1] (setting [10]) and in data set [1] (setting [11]) was not below 200 µM throughout. For the same molecule, the pIC50 is 9.18 in data set [2] (Table 7) and 6.98 in data set [3]. The “Ratio rCT/rAmylin binding” value in data set [2] (setting [12]), in data set [2] (setting [13]) and in data set [2] (setting [14]) was 156.4 in each case.
